Results on 3 compounds are retold here after US5189033A, “Tricyclic heterocycles” (Imperial Chemical Industries PLC, priority 1991, dated 1993).

Where two headings read alike, the source gives them in different places.

Assay [1] deals with T1, EP1 receptors (PGE2-induced contractions of the ileum) (Cavia porcellus, UniProt A0A286XHJ6).
T1 construct: ileum was immersed in oxygenated Krebs solution containing indomethacin; from tissue; host or cells: guinea pig ileum
T1 sequence (A0A286XHJ6 1-405): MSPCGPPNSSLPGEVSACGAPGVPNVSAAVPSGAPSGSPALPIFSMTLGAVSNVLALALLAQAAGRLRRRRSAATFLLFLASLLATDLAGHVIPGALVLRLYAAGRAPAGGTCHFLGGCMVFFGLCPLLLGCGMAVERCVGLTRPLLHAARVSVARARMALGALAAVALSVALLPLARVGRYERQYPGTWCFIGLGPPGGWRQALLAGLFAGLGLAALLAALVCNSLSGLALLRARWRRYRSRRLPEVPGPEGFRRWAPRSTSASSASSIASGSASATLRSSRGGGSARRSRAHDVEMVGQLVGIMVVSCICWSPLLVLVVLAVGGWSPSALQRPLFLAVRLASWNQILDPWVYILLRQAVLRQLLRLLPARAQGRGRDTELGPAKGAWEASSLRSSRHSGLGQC
As to the kind of experiment: Test (a): in-vitro guinea pig ileum assay, inhibition of PGE2-induced contractions. The note with it: PGE2-induced contraction of guinea pig ileum, read-out: pA2 value (converted). On the procedure:
(a) an in-vitro guinea pig ileum assay which assesses the inhibitory properties of a test compound against PGE2 -induced contractions of the ileum; ileum was immersed in oxygenated Krebs solution containing indomethacin (4 μg/ml) and atropine (1 μM) and which was maintained at 37° C.; the ileum was subject to a resting tension of 1 g; a control dose response curve for PGE2 -induced contraction of the ileum was obtained; test compound (dissolved in dimethylsulphoxide) was added to the Krebs solution and a dose response curve for the PGE2 -induced contraction of the ileum in the presence of the test compound was obtained; the pA2 value for the test compound was calculated;
Prostanoid receptors and in particular receptors for PGE2 have been tentatively characterised by Kennedy et al. (Advances in Prostaglandin, Thromboxane and Leukotriene Research, 1983, 11, 327).

Assay [2] relates to writhing induced by the intraperitoneal administration of phenylbenzoquinone. In words: Test (c): in-vivo assay in mice, writhing induced by phenylbenzoquinone (PBQ). The note with it: at 100 mg/kg, oral dosing. From the text:
(c) an in-vivo assay in mice which assesses the inhibitory properties of a test compound against writhing induced by the intraperitoneal administration of phenylbenzoquinone (hereinafter PBQ) using the procedure disclosed in European Patent Application No. 0218077.

Assay [3] relates to writhing induced by the concomitant administration of PGE2 and bradykinin. As to the kind of experiment: Test (b): in-vivo assay in mice, writhing induced by PGE2 and bradykinin. To be noted: Mus musculus, oral dosing, read-out: ED50 for antagonism of the writhing response.
For another assay, the system named is PGE2 receptors. The note with it: cited from earlier work.

With `O=C(O)c1cccc(CN2Cc3ccccc3Oc3ccc(Cl)cc32)c1` [Example 1, 3-(8-chloro-10,11-dihydrodibenzo[b,f]-[1,4]oxazepin-10-ylmethyl)benzoic acid], in assay [1], the Kb is 0.0398 µM. In assay [2], the “activity in Test (c)” value is listed as “significant activity”.

Regarding `O=C(O)c1ccc(CN2Cc3ccccc3Oc3ccc(Cl)cc32)cc1` [Example 2, 4-(8-chloro-10,11-dihydrodibenzo[b,f][1,4]oxazepin-10-ylmethyl)-benzoic acid], the Kb in assay [1] is 0.1 µM. In assay [3], the ED50 was found to be 19 mg/kg.

Turning to `CC(=O)NNC(=O)N1Cc2ccccc2Oc2ccc(Cl)cc21` [SC-19220], the results for the “block of the effect of PGE2” value in the assay on PGE2 receptors (cat trachea or chick ileum) and in the assay on PGE2 receptors (guinea pig ileum or dog fundus) were “not on other tissues” and “blocks the effect of PGE2”, respectively.

In general, ED50 refers to the dose at which the effect has come halfway, by size or by number of responders.
